PMC6021032, “Antimycobacterial activity of nitrogen heterocycles derivatives: 7-(pyridine-4-yl)-indolizine derivatives. Part VII^8–12” (Journal of Enzyme Inhibition and Medicinal Chemistry, 2017)

How the values were obtained:
[1] = molecular target: T1, CYP2D6 (Homo sapiens, UniProt P10635); experiment: Cytochrome P450 inhibition in human liver microsomes; format: in vitro ADME
T1 construct: Compounds were incubated with human liver; from tissue; host or cells: human liver microsomes

[2] = molecular target: T2, CYP2B6 (Homo sapiens, UniProt P20813); experiment: as above; format: in vitro ADME
T2 construct: Compounds were incubated with human liver; from tissue; host or cells: human liver microsomes
T2 sequence (P20813 1-491): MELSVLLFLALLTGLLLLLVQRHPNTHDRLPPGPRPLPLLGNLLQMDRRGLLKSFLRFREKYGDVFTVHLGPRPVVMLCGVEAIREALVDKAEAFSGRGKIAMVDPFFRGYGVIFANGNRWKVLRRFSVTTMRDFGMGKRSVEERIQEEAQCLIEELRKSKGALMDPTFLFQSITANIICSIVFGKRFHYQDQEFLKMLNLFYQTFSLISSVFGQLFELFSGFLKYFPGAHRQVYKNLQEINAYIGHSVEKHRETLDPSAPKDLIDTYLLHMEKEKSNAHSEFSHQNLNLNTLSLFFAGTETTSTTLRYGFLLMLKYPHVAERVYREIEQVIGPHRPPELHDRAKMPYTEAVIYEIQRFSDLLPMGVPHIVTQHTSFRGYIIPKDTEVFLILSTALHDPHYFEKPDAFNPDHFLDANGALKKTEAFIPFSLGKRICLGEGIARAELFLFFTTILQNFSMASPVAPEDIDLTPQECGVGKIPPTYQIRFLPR

[3] = Plasma protein binding by equilibrium dialysis

T1 sequence (P10635 whole entry): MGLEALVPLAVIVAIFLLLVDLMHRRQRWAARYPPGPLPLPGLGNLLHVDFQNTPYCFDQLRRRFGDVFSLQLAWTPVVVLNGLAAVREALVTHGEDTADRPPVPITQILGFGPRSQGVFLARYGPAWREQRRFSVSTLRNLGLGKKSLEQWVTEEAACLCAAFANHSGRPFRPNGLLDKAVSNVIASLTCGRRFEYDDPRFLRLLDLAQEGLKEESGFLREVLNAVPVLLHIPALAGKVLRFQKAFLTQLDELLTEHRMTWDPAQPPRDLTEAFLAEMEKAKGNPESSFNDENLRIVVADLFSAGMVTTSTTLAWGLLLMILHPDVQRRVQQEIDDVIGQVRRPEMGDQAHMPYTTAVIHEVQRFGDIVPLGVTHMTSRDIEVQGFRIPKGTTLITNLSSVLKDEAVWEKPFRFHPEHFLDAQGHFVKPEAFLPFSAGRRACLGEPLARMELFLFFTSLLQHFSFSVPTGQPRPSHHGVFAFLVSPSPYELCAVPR

CCOC(=O)c1cc(C(=O)c2ccc(Cl)cc2)n2ccc(-c3cc[n+](CC(=O)c4ccc(C)cc4)cc3)cc12 [Compound 6i]
IC50 [1]: > 5 µM
IC50 [2]: > 5 µM
Mean plasma fraction bound ([3]; Human plasma, 5 µM, 4 h at 37 °C): strongly bound
fraction unbound at 4 h, 5 µM ([3]; human, human plasma, 5 µM, 4 h at 37 °C): 0.003
fraction unbound at 4 h, 5 µM ([3]; human, human plasma, Mean plasma fraction unbound, 5 µM, 4 h at 37 °C): 0.0035
recovery at 4 h, 5 µM ([3]; human, human plasma, dialysed against PBS in a RED device): 48.7%
